Laboratory results published in ChEMBL document CHEMBL4406823 (Eur J Med Chem, 2019).
The source made the active and inactive calls. The rule behind the calls is not given here.

Assays:
MCF7 = test: cells; conditions: Homo sapiens, MCF7, 72 h
Description: Antiproliferative activity against human MCF7 cells assessed as inhibition of cell proliferation incubated for 72 hrs by MTT assay

HL-60 = test: Antiproliferative activity against human HL60 cells assessed as inhibition of cell proliferation incubated for 72 hrs by MTT assay; format: functional, cell-based; conditions: HL-60, 72 h
SEM cells = test: Antiproliferative activity against human SEM cells assessed as inhibition of cell proliferation incubated for 72 hrs by MTT assay; format: functional, cell-based
HeLa = test: cells; conditions: Homo sapiens, 72 h
Description: Antiproliferative activity against human HeLa cells assessed as inhibition of cell proliferation incubated for 72 hrs by MTT assay

HT-29 = test: cells; conditions: Homo sapiens, HT-29, 72 h
Description: Antiproliferative activity against human HT-29 cells assessed as inhibition of cell proliferation incubated for 72 hrs by MTT assay

MDA-MB-231 [1] = test: Antiproliferative activity against human MDA-MB-231 cells assessed as inhibition of cell proliferation incubated for 72 hrs by MTT assay; format: functional, cell-based; conditions: MDA-MB-231, 72 h
Tubulin = Tubulin (Bos taurus, UniProt Q6B856+Q862L2+Q862F3); test: Inhibition of bovine brain tubulin assembly using GTP as substrate incubated for 20 mins by spectrophotometric method
Tubulin (Bos taurus) [2] = target: T1, Tubulin (Bos taurus) (UniProt Q6B856+Q862L2+Q862F3); test: Displacement of [3H]-colchicine from bovine brain tubulin at 5 uM incubated for 1 hr by relative to control
Tubulin (Bos taurus) [3] = target: T1, Tubulin (Bos taurus); test: Displacement of [3H]-colchicine from bovine brain tubulin at 0.5 uM incubated for 1 hr by relative to control
MDA-MB-231 [4] = test: Induction of cell cycle arrest in human MDA-MB-231 cells assessed as reduction in accumulation of cells at G1 phase at 10 to 100 nM incubated for 24 hrs by PI staining based flow cytometric analysis; format: functional
CCRF-CEM = test: Antiproliferative activity against human CEM cells assessed as inhibition of cell growth incubated for 72 hrs by MTT assay; format: functional
[5] = Cytotoxicity against human quiescent PBL assessed as reduction in cell viability incubated for 72 hrs by MTT assay; format: cell-based
MDA-MB-231 [6] = test: Induction of cell cycle arrest in human MDA-MB-231 cells assessed as effect on cyclin B protein expression at 50 to 100 nM incubated for 24 to 48 hrs by western blot analysis; format: functional, cell-based
MDA-MB-231 [7] = test: Induction of apoptosis in human MDA-MB-231 cells assessed as reduction in Mcl1 protein expression at 50 to 100 nM incubated for 48 hrs by Western blot analysis; format: functional, cell-based
MDA-MB-231 [8] = test: Induction of apoptosis in human MDA-MB-231 cells assessed as activation of PARP cleavage at 50 to 100 nM incubated for 48 hrs by Western blot analysis; format: functional, cell-based
MDA-MB-231 [9] = test: Induction of ROS generation in human MDA-MB-231 cells at 50 to 100 nM incubated for 24 to 48 hrs by H2-DCFDA staining based flow cytometric method; format: functional, cell-based
MDA-MB-231 [10] = test: Induction of cell cycle arrest in human MDA-MB-231 cells assessed as reduction in accumulation of cells at S phase at 10 to 100 nM incubated for 24 hrs by PI staining based flow cytometric analysis; format: functional
MDA-MB-231 [11] = test: Induction of cell cycle arrest in human MDA-MB-231 cells assessed as increase in accumulation of cells at G2/M phase at 100 nM incubated for 24 hrs by PI staining based flow cytometric analysis; format: functional
[12] = Antiproliferative activity against human CEM/VBL100 cells overexpressing P-gp assessed as inhibition of cell growth incubated for 72 hrs by MTT assay; format: functional; conditions: CEM/VBL100, 72 h
MDA-MB-231 [13] = test: Induction of mitochondrial membrane depolarization in human MDA-MB-231 cells at 50 to 100 nM incubated for 24 to 48 hrs by JC1 staining based flow cytometric method; format: functional, cell-based
MDA-MB-231 [14] = test: Induction of apoptosis in human MDA-MB-231 cells assessed as reduction in XIAP protein expression at 50 to 100 nM incubated for 24 to 48 hrs by Western blot analysis; format: functional, cell-based
MDA-MB-231 [15] = test: Induction of cell cycle arrest in human MDA-MB-231 cells assessed as increase in p21 protein expression level at 50 to 100 nM incubated for 24 to 48 hrs by western blot analysis; format: functional, cell-based
MDA-MB-231 [16] = test: Induction of apoptosis in human MDA-MB-231 cells at 50 nM incubated for 24 to 48 hrs by annexin V-FITC/propidium iodide staining-based flow cytometry analysis; format: functional, cell-based
[17] = Cytotoxicity against human astrocytes assessed as reduction in cell viability incubated for 72 hrs by MTT assay; format: cell-based, Astrocyte
[18] = Cytotoxicity against PHA-stimulated human PBL assessed as reduction in cell viability incubated for 72 hrs by MTT assay; format: cell-based
E0771 = test: Antitumour activity against mouse E0771 cells allografted in C57BL/6 mouse assessed as reduction in tumor mass at 30 mg/kg, ip administrated every other day by caliper method; format: functional, organism-based

SMILES | IC50 (MCF7) [nM] | IC50 (HL-60) [nM] | IC50 (SEM cells) [nM] | IC50 (HeLa) [nM] | IC50 (HT-29) [nM] | IC50 (MDA-MB-231 [1]) [nM] | IC50 (Tubulin) [nM] | inhibition (Tubulin (Bos taurus) [2]) [%] | inhibition (Tubulin (Bos taurus) [3]) [%] | further results
COc1cc(-c2n[nH]cc2-c2cc(C)c(OC)c(C)c2)cc(OC)c1OC | > 10000 | > 10000 | 3340 | > 10000 | > 10000 | > 10000 | – | – | – | –
COc1cc(-c2n[nH]cc2-c2ccc(C)c(C)c2)cc(OC)c1OC | 769 | 51.3 | 28.5 | 35.9 | 68.4 | 2610 | 610 | 85 | – | –
COc1cc(-c2n[nH]cc2-c2ccc3ccccc3c2)cc(OC)c1OC | 21.4 | 9.4 | 3.3 | 6.6 | 8.1 | 28.4 | 410 | 91 | 68 | –
COc1cc(-c2c[nH]nc2-c2cc(OC)c(OC)c(OC)c2)ccc1C | > 10000 | 160 | 305 | 287 | 316 | 5280 | – | – | – | –
CCSc1ccc(-c2c[nH]nc2-c2cc(OC)c(OC)c(OC)c2)cc1 | 492 | 29.7 | 13.9 | 12.5 | 5.4 | 31.4 | 480 | 85 | – | –
COc1cc(-c2n[nH]cc2-c2ccc(C(F)(F)F)cc2)cc(OC)c1OC | 4380 | 179 | 187 | 227 | 67.4 | 523 | – | – | – | –
COc1ccc(-c2c[nH]nc2-c2cc(OC)c(OC)c(OC)c2)cc1Cl | 1390 | 17 | 2.4 | 1.4 | 0.2 | 21.5 | 520 | 85 | – | –
COc1cc(-c2n[nH]cc2-c2ccc(OC(F)(F)F)cc2)cc(OC)c1OC | > 10000 | 1750 | 2470 | 3380 | 2420 | 5740 | – | – | – | –
COc1ccc(-c2n[nH]cc2-c2cc(OC)c(OC)c(OC)c2)cc1 | 2.6 | 2.1 | 0.4 | 1.9 | 0.8 | 0.9 | 340 | 93 | 79 | –
COc1ccc(/C=C\c2cc(OC)c(OC)c(OC)c2)cc1O [COMBRETASTATIN A4] | – | – | 5.1 | – | – | 4.5 | – | – | – | –
COc1cc(-c2c[nH]nc2-c2ccc(C)cc2)cc(OC)c1OC | 700 | 31.4 | 14.7 | 25.2 | 44.4 | 262 | 570 | 86 | – | –
COc1ccc(-c2c[nH]nc2-c2cc(OC)c(OC)c(OC)c2)cc1 | 16.6 | 4.4 | 1 | 6 | 10.5 | 8.6 | 370 | 86 | – | –
COc1cc(-c2n[nH]cc2-c2cc3ccccc3s2)cc(OC)c1OC | 1.4 | 2.3 | 0.5 | 1.7 | 7.4 | 2.5 | 300 | 93 | 69 | –
CCOc1ccc(-c2c[nH]nc2-c2cc(OC)c(OC)c(OC)c2)cc1Cl | 4.5 | 1.5 | 1.4 | 1.6 | 4.2 | 6.9 | 390 | 90 | 62 | –
COc1ccc(-c2c[nH]nc2-c2cc(OC)c(OC)c(OC)c2)cc1C | > 10000 | 17.7 | 17.2 | 32.9 | 37.3 | 2680 | 440 | 81 | – | –
COc1ccc(-c2c[nH]nc2-c2cc(OC)c(OC)c(OC)c2)cc1F | 805 | 5.1 | 2.7 | 7.3 | 15.8 | 327 | 420 | 93 | 55 | –
COc1cc(-c2n[nH]cc2-c2ccc(C)c(F)c2)cc(OC)c1OC | 1700 | 31 | 23.5 | 26.2 | 67.4 | 481 | 480 | 91 | 49 | –
COc1cc(-c2n[nH]cc2-c2ccc(SC)cc2)cc(OC)c1OC | > 10000 | 40.9 | 30.1 | 28.7 | 51.3 | 3650 | 570 | 85 | – | –
CCOc1ccc(-c2c[nH]nc2-c2cc(OC)c(OC)c(OC)c2)cc1 | 1.5 | 3.2 | 0.2 | 0.05 | 0.3 | 4.5 | 360 | 95 | 69 | Activity (MDA-MB-231 [4]): Active; GI50 (CCRF-CEM): 0.4 nM; GI50 at 72 h [5]: 8700 nM; Activity (MDA-MB-231 [6]): inactive; Activity (MDA-MB-231 [7]): Active; Activity (MDA-MB-231 [8]): Active; Activity (MDA-MB-231 [9]): Active; Activity (MDA-MB-231 [10]): Active; Activity (MDA-MB-231 [11]): Active; GI50 [12]: 1.9 nM; Activity (MDA-MB-231 [13]): Active; Activity (MDA-MB-231 [14]): Active; Activity (MDA-MB-231 [15]): Active; Activity (MDA-MB-231 [16]): Active; GI50 at 72 h [17]: > 10000 nM; GI50 at 72 h [18]: > 10000 nM
COc1cc(-c2n[nH]cc2-c2ccc(C)cc2)cc(OC)c1OC | 127 | 11.9 | 2.6 | 11.1 | 28.2 | 10.6 | 370 | 88 | – | –
COc1ccc(/C=C\c2cc(OC)c(OC)c(OC)c2)cc1OP(=O)(O)O | – | – | – | – | – | – | – | – | – | inhibition (E0771): Active
CCCc1ccc(-c2c[nH]nc2-c2cc(OC)c(OC)c(OC)c2)cc1 | 2790 | 553 | 406 | 361 | 541 | 1550 | – | – | – | –
CCc1ccc(-c2c[nH]nc2-c2cc(OC)c(OC)c(OC)c2)cc1 | > 10000 | 23.3 | 18.7 | 33.5 | 41.3 | 3270 | 520 | 85 | – | –
